Measurements published in US7759369B2, “Pyridine compounds for the treatment of prostaglandin mediated diseases” (Glaxo Group Limited, priority 2004, dated 2010).
Counter-ions that a name gives are not always drawn.

Legend:
Assay type in all cases: cell-based
TP receptor = molecular target: T1, TP receptor (Homo sapiens, UniProt P21731); experiment: human TP calcium mobilisation assay (CHO-K1 cells, U46619, FLIPR); conditions: free bases or sodium salts; read-out: functional pKi, human TP calcium mobilisation assay (converted)
T1 construct: expressed in transfected cells; host or cells: CHO-K1
T1 sequence (P21731 1-343): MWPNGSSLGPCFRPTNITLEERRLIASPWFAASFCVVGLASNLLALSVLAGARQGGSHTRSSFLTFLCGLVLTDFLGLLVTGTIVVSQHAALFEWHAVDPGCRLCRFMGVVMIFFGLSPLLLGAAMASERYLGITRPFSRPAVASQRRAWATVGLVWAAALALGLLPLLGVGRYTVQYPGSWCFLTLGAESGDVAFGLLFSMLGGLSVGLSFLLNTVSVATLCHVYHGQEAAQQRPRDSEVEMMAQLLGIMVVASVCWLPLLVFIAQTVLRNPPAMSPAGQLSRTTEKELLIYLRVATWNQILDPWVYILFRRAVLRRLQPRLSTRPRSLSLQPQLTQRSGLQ
Protocol: To determine if a compound has agonist or antagonist activity at the TP receptor a functional calcium mobilisation assay may be performed. Briefly, the antagonist properties of compounds are assessed by their ability to inhibit the mobilisation of intracellular calcium ([Ca^2+]i) in response to activation of TP receptors by the stable TXA2 mimetic U46619 (9,11-dideoxy-11α,9α-epoxy-methanoprostaglandin F2 α; commercially available from e.g Sigma-Aldrich). Increasing concentrations of antagonist reduce the amount of calcium that a given concentration of U46619 can mobilise. The net effect is to displace the U46619 concentration-effect curve. The amount of calcium produced is assessed using a calcium-sensitive fluorescent dye such as Fluo-4, AM and a suitable instrument such as a Fluorimetric Imaging Plate Reader (FLIPR). Increasing amounts of [Ca^2+]i produced by receptor activation increase the amount of fluorescence produced by the dye and give rise to an increasing signal. The signal may be detected using the FLIPR instrument and the data generated may be analysed with suitable curve-fitting software. The agonist activity of the compounds are determined by their ability to cause an increase in intracellular mobilisation in the absence of U46619.
(§1) The human TP calcium mobilisation assay utilises Chinese hamster ovary-K1 (CHO-K1) cells into which a stable (pCIN; BioTechniques 20 (1996): 102-110) vector containing TP cDNA has previously been transfected. Cells are cultured in suitable flasks containing culture medium such as DMEM:F-12 supplemented with 10% v/v foetal calf serum, 2 mM L-glutamine, 0.25 mg/ml geneticin, 100 μM flurbiprofen and 10 μg/ml puromycin.
(§2) For assay, cells are harvested using a proprietary reagent that dislodges cells such as Versene. Cells are re-suspended in a suitable quantity of fresh culture media for introduction into a 96-well plate. Following incubation for 24 hours at 37° C. the culture media is replaced with a medium containing Fluo-4 and the detergent pluronic acid, and a further incubation takes place. Concentrations of compounds are then added to the plate in order to construct concentration-effect curves. This may be performed on the FLIPR in order to assess the agonist properties of the compounds. Concentrations of U46619 are then added to the plate in order to assess the antagonist properties of the compounds.
The data so generated may be analysed by means of a computerised curve-fitting routine. The concentration of compound that elicits a half-maximal inhibition of the calcium mobilisation induced by U46619 (plC50) may then be estimated, and the percentage activation caused by the compounds directly can be used to determine if there is any agonism present.

EP1 receptors = molecular target: T2, EP1 receptors (Homo sapiens, UniProt P34995); experiment: human EP1 calcium mobilisation assay (CHO-K1 cells, PGE2, FLIPR); parameters: expressed in transfected cells; host or cells: CHO-K1; conditions: free bases or sodium salts; averages of a number of experiments; read-out: functional pKi value, human EP1 calcium mobilisation assay (converted)
T2 sequence (P34995 1-402): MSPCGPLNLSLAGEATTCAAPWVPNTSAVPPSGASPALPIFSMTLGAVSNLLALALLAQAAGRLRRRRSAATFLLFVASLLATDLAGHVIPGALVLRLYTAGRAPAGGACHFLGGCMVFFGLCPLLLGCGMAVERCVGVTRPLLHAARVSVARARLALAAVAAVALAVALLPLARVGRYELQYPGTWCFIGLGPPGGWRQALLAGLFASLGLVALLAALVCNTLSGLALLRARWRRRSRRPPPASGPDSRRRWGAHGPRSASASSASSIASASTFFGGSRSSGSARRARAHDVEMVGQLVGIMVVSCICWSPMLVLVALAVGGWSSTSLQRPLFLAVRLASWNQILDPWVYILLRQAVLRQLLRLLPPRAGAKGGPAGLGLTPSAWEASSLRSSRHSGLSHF
Protocol: (§3) Briefly, the antagonist properties of compounds are assessed by their ability to inhibit the mobilisation of intracellular calcium ([Ca^2+]i) in response to activation of EP1 or EP3 receptors by the natural agonist hormone prostaglandin E2 (PGE2). Increasing concentrations of antagonist reduce the amount of calcium that a given concentration of PGE2 can mobilise. The net effect is to displace the PGE2 concentration-effect curve to higher concentrations of PGE2. The amount of calcium produced is assessed using a calcium-sensitive fluorescent dye such as Fluo-4, AM and a suitable instrument such as a Fluorimetric Imaging Plate Reader (FLIPR). Increasing amounts of [Ca^2+]i produced by receptor activation increase the amount of fluorescence produced by the dye and give rise to an increasing signal. The signal may be detected using the FLIPR instrument and the data generated may be analysed with suitable curve-fitting software.
as §1, with “human EP1 or EP3” for “human TP”, “assay (hereafter referred to as ‘the calcium assay’)” for “assay”, “containing either EP1 or EP3” for “containing TP”, “10 µg/ml” for “10 μg/ml”
as §2, with “384-well” for “96-well”, “PGE2” for “U46619”
(§4) The data so generated may be analysed by means of a computerised curve-fitting routine. The concentration of compound that elicits a half-maximal inhibition of the calcium mobilisation induced by PGE2 (pIC50) may then be estimated.

EP3 receptors = molecular target: T3, EP3 receptors (Homo sapiens, UniProt P43115); experiment: human EP3 calcium mobilisation assay (CHO-K1 cells, PGE2, FLIPR); conditions: free bases or sodium salts; averages of a number of experiments; read-out: functional pKi value, human EP3 calcium mobilisation assay (converted)
T3 construct: expressed in transfected cells; host or cells: CHO-K1
T3 sequence (P43115 1-390): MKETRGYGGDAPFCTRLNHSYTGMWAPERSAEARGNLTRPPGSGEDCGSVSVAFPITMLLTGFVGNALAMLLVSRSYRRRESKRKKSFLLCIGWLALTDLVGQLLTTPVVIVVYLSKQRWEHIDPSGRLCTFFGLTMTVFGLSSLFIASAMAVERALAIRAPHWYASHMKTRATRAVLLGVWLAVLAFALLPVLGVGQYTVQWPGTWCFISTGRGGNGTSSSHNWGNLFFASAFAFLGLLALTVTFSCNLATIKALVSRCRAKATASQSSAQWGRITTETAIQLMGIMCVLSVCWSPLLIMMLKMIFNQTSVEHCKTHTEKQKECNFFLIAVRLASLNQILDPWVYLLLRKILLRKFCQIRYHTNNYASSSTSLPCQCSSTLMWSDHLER
Protocol: as §3
as §1, with “human EP1 or EP3” for “human TP”, “assay (hereafter referred to as ‘the calcium assay’)” for “assay”, “containing either EP1 or EP3” for “containing TP”, “10 µg/ml” for “10 μg/ml”
as §2, with “384-well” for “96-well”, “PGE2” for “U46619”
as §4

SMILES | Ki (TP receptor) [nM] | Ki (EP1 receptors) [nM] | Ki (EP3 receptors) [µM]
O=C(O)c1cccc(Cc2cc(Cl)ccc2OCc2ccccc2)n1 [Example 1, 6-({5-Chloro-2-[(phenylmethyl)oxy]phenyl}methyl)-2-pyridinecarboxylic acid] | > 1000 | – | –
C=C(C)COc1ccc(Cl)cc1Cc1cccc(C(=O)O)n1 [Example 2, 6-({5-Chloro-2-[(2-methyl-2-propen-1-yl)oxy]phenyl}methyl)-2-pyridinecarboxylic acid] | – | ≤ 31.6 | > 10
O=C(O)c1cccc(Cc2cc(Cl)ccc2OCc2ccc(F)cc2)n1 [Example 5, sodium 6-[(5-chloro-2-{[(4-fluorophenyl)methyl]oxy}phenyl)methyl]-2-pyridinecarboxylate] | < 1000 | < 1000 | –
O=C(O)c1cccc(Cc2cc(Cl)ccc2OCc2c(F)cc(F)cc2F)n1 [Example 6, Sodium 6-[(5-chloro-2-{[(2,4,6-trifluorophenyl)methyl]oxy}phenyl)methyl]-2-pyridinecarboxylate] | < 1000 | < 1000 | –
O=C(O)c1cccc(Cc2cc(Cl)ccc2OCc2ccc(F)c(F)c2F)n1 [Example 7, Sodium 6-[(5-chloro-2-{[(2,3,4-trifluorophenyl)methyl]oxy}phenyl)methyl]-2-pyridinecarboxylate] | < 1000 | < 1000 | –
O=C(O)c1cccc(Cc2cc(Cl)ccc2OCc2ccccc2Cl)n1 [Example 13, Sodium 6-[(5-chloro-2-{[(2-chlorophenyl)methyl]oxy}phenyl)methyl]-2-pyridinecarboxylate] | > 1000 | ≤ 31.6 | –
CC(C)Oc1ccc(Cl)cc1Cc1cccc(C(=O)O)n1 [Example 16, Sodium 6-({5-chloro-2-[(1-methylethyl)oxy]phenyl}methyl)-2-pyridinecarboxylate] | – | < 1000 | > 10
O=C(O)c1cccc(Cc2cc(Cl)ccc2OCC2CC2)n1 [Example 17, Sodium 6-({5-chloro-2-[(cyclopropylmethyl)oxy]phenyl}methyl)-2-pyridinecarboxylate] | – | < 1000 | > 10
O=C(O)c1cccc(Cc2cc(Cl)ccc2OCC2CCCCC2)n1 [Example 18, Sodium 6-({5-chloro-2-[(cyclohexylmethyl)oxy]phenyl}methyl)-2-pyridinecarboxylate] | – | ≤ 31.6 | –
O=C(O)c1cccc(Cc2cc(Cl)ccc2OC2CCCC2)n1 [Example 19, Sodium 6-{[5-chloro-2-(cyclopentyloxy)phenyl]methyl}-2-pyridinecarboxylate] | – | < 1000 | > 10
CCC(CC)COc1ccc(Cl)cc1Cc1cccc(C(=O)O)n1 [Example 20, Sodium 6-({5-chloro-2-[(2-ethylbutyl)oxy]phenyl}methyl)-2-pyridinecarboxylate] | – | < 1000 | –
O=C(NS(=O)(=O)c1cc(Cl)cc(Cl)c1)c1cccc(Cc2cc(Cl)ccc2OCc2ccc(Cl)cc2F)n1 [Example 31] | – | > 1000 | > 10
COc1ccc(S(=O)(=O)NC(=O)c2cccc(Cc3cc(Cl)ccc3OCc3ccc(Cl)cc3F)n2)cc1 [Example 32, 6-[(5-Chloro-2-{[(4-chloro-2-fluorophenyl)methyl]oxy}-phenyl)methyl]-N-{[4-methoxyphenyl]suiphonyl}-2-pyridine-carboxamide] | – | > 1000 | > 10
CC(=O)Nc1ccc(S(=O)(=O)NC(=O)c2cccc(Cc3cc(Cl)ccc3OCc3ccc(Cl)cc3F)n2)cc1 [Example 35, N-{[4-(Acetylamino)phenyl]-sulphonyl}-6-[(5-chloro-2-{[(4-chloro-2-fluorophenyl)methyl]-oxy}phenyl)methyl]-2-pyridine-carboxamide] | – | < 1000 | > 10
O=C(O)c1cc(Cl)cc(Cc2cc(Cl)ccc2OCc2ccc(Cl)cc2F)n1 [Example 37, 4-Chloro-6-[(5-chloro-2-{[(4-chloro-2-fluorophenyl)-methyl]oxy}phenyl)methyl]-2-pyridinecarboxylic acid, sodium salt] | – | ≤ 31.6 | –
